From patent publication US8846739B2, “TGR5 agonists” (Exelixis Patent Company LLC, priority 2009, dated 2014)

Tests used:
human TGR5 (h-TGR5) = biological target: T1, human TGR5 (h-TGR5) (Homo sapiens, UniProt Q8TDU6); experiment: TGR5/CRE-Luciferase Assay; type: cell-based; conditions: HEK 293 hTGR5/CRE-Luc cells, 6 hours incubation, read-out: CRE-Luc Agonist (EC50)
T1 sequence (Q8TDU6 1-330): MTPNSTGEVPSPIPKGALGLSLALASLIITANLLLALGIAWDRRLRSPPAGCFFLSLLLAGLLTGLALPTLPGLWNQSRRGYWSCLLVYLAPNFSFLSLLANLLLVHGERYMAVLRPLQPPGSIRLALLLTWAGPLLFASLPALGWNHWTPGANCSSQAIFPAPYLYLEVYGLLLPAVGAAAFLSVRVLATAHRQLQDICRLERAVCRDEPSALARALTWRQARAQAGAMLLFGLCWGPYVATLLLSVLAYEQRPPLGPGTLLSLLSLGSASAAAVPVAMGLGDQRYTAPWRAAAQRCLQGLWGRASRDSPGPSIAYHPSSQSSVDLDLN
Procedure: HEK 293 cells stably expressing human TGR5 (h-TGR5) or mouse TGR5 (m-TGR5) were generated from HEK 293 CRE-Luciferase cells. The day before the assay, HEK 293 hTGR5/CRE-Luc cells were plated in DMEM in a 384 well assay plate at a density of 25 k cells/45 μL per well and grown for 18-20 hours. Compounds were serially diluted in DMEM containing 5% DMSO and 5 µL of compound or media alone was transferred to each well and plates were incubated for 6 hours. Following incubation, 30 μL of lysis/luciferase buffer was added to each well. The luciferase activity was then measured on the EnVision™ plate reader and the dose response data was analyzed using ActivityBase.
(§1) In the following tables, ECso values determined according to the TGR5 cAMP Assay are noted (cAMP); EC50 values determined according to the TGR5/CRE-Luciferiase Assay are noted (CRE-Luc).

h-TGR5 = biological target: T2, h-TGR5 (Homo sapiens, UniProt Q8TDU6); experiment: TGR5 cAMP Assay using Cisbio cAMP Dynamic 2 htrf assay kit; type: cell-based; conditions: hTGR5CRE-luc HEK 293 cells
T2 sequence (Q8TDU6 1-330): T1 sequence (Q8TDU6 1-330)
Procedure: Compounds were diluted in DPBS with 5% DMSO (8-point serial dilution by half logs) in a 96-well plate and 1 μL was transferred to a 384-well assay plate in quadruplicate. The d2-cAMP and anti-cAMP Ab-cryptate stock solution were prepared as per the instructions in the Cisbio™ (Bedford, Mass.) kit. Cells (hTGR5CRE-luc HEK 293 and mTGR5CRE-luc HEK 293) were harvested using cell dissociation buffer and resuspended in DPBS. Cells were adjusted to 0.44×10^6 cells/ml followed by addition of IBMX to a final concentration of 0.5 mM. The cells were then mixed with d2-cAMP solution (7.1 mL cells+100 ul d2-cAMP) and 4000 cells (9 μL) were transferred to each well of the 384-well assay plate. Cells without d2-cAMP were added to eight wells as a negative control. The plate was covered and incubated at room temp for 30 min. Then 10 μL of Ab-cryptate solution was added to each well of the assay plate and incubated for 1 hr. The plate was read on an EnVision™ plate reader (Perkin-Elmer, Waltham, Mass.) and the DeltaF value was calculated as per the instructions in the Cisbio™ kit.
as §1

| EC50 (human TGR5 (h-TGR5)) [µM] | EC50 (h-TGR5) [µM] | SMILES |
| --- | --- | --- |
| < 0.1 | < 0.1 | COc1cc(C(C)(C)c2cnc(COc3c(F)cc(S(=O)(=O)N(C)CCC[N+](C)(C)C)cc3Cl)n2-c2ccc(F)cc2)ccc1Cl [Compound 12e, 3-(3-Chloro-4-((5-(2-(4-chloro-3-methoxyphenyl)propan-2-yl)-1-(4-fluorophenyl)-1H-imidazol-2-yl)methoxy)-5-fluoro-N-methylphenylsulfonamido)-N,N,N-trimethylpropan-1-aminium 2,2,2-trifluoroacetate] |
| < 0.1 | < 0.1 | CCN(CCC[N+](C)(C)C)S(=O)(=O)c1cc(F)c(CSc2ncc(C(C)(C)c3ccc(F)c(OC)c3)n2-c2ccc(F)cc2)c(Cl)c1 [Compound 14j, 3-[{[3-chloro-5-fluoro-4-({[5-{1-[4-fluoro-3-(methyloxy)phenyl]-1-methylethyl}-1-(4-fluorophenyl)-1H-imidazol-2-yl]thio}methyl)phenyl]sulfonyl} (ethyl)amino]-N,N,N-trimethylpropan-1-aminium] |
| < 0.1 | < 0.1 | COc1cc(C(C)(C)c2cnc(SCc3c(F)cc(S(=O)(=O)N(CCC[N+](C)(C)C)C(C)C)cc3Cl)n2-c2ccc(F)cc2)ccc1F [Compound 14l, 3-[{[3-chloro-5-fluoro-4-({[5-{1-[4-fluoro-3-(methyloxy)phenyl]-1-methylethyl}-1-(4-fluorophenyl)-1H-imidazol-2-yl]thio}methyl)phenyl]sulfonyl} (1-methylethyl)amino]-N,N,N-trimethylpropan-1-aminium] |
| < 0.1 | < 0.1 | COc1cc(C(C)(C)c2cnc(SCc3c(F)cc(S(=O)(=O)N(CCC[N+](C)(C)C)C4CC4)cc3Cl)n2-c2ccc(F)cc2)ccc1F [Compound 14k, 3-[{[3-chloro-5-fluoro-4-({[5-{1-[4-fluoro-3-(methyloxy)phenyl]-1-methylethyl}-1-(4-fluorophenyl)-1H-imidazol-2-yl]thio}methyl)phenyl]sulfonyl} (cyclopropyl)amino]-N,N,N-trimethylpropan-1-aminium] |
| < 0.1 | < 0.1 | COc1cc(C(C)(C)c2cnc(SCc3c(F)cc(S(=O)(=O)N(CCC[N+](C)(C)C)CC(N)=O)cc3F)n2-c2ccc(F)cc2)ccc1Cl [Compound 12h, 3-(N-(2-amino-2-oxoethyl)-4-((5-(2-(4-chloro-3-methoxyphenyl)propan-2-yl)-1-(4-fluorophenyl)-1H-imidazol-2-ylthio)methyl)-3,5-difluorophenylsulfonamido)-N,N,N-trimethylpropan-1-aminium 2,2,2-trifluoroacetate] |
| < 0.1 | < 0.1 | COc1cc(C(C)(C)c2cnc(CCc3c(F)cc(S(=O)(=O)N[C@@H](CCCC[N+](C)(C)C)C(=O)O)cc3Cl)n2-c2ccc(F)cc2)ccc1Cl [Compound 17n, (S)-5-carboxy-5-(3-chloro-4-(2-(5-(2-(4-chloro-3-methoxyphenyl)propan-2-yl)-1-(4-fluorophenyl)-1H-imidazol-2-yl)ethyl)-5-fluorophenylsulfonamido)-N,N,N-trimethylpentan-1-aminium 2,2,2-trifluoroacetate] |
| < 0.1 | < 0.1 | CC[C@H](C(=O)O)N(CCC[N+](C)(C)C)S(=O)(=O)c1cc(F)c(CSc2ncc(C(C)(C)c3ccc(Cl)c(OC)c3)n2-c2ccc(F)cc2)c(Cl)c1 [Compound 14ab, 3-([(1R)-1-carboxypropyl]{[3-chloro-4-({[5-{1-[4-chloro-3-(methyloxy)phenyl]-1-methylethyl}-1-(4-fluorophenyl)-1H-imidazol-2-yl]thio}methyl)-5-fluorophenyl]sulfonyl}amino)-N,N,N-trimethylpropan-1-aminium] |
| < 0.1 | < 0.1 | COc1cc(C(C)(C)c2cnc(SCc3c(F)cc(S(=O)(=O)N(CCC[N+](C)(C)C)[C@H](C)C(=O)O)cc3F)n2-c2ccc(F)cc2)ccc1Cl [Compound 14a, (R)-3-(N-(1-carboxyethyl)-4-((5-(2-(4-chloro-3-methoxyphenyl)propan-2-yl)-1-(4-fluorophenyl)-1H-imidazol-2-ylthio)methyl)-3,5-difluorophenylsulfonamido)-N,N,N-trimethylpropan-1-aminium 2,2,2-trifluoroacetate] |
| < 0.1 | < 0.1 | COc1cc(C(C)(C)c2cnc(SCc3c(F)cc(S(=O)(=O)N(C)[C@@H](CCCCC[N+](C)(C)C)C(=O)O)cc3Cl)n2-c2ccc(F)cc2)ccc1Cl [Compound 17l, (S)-6-carboxy-6-(3-chloro-4-((5-(2-(4-chloro-3-methoxyphenyl)propan-2-yl)-1-(4-fluorophenyl)-1H-imidazol-2-ylthio)methyl)-5-fluoro-N-methylphenylsulfonamido)-N,N,N-trimethylhexan-1-aminium 2,2,2-trifluoroacetate] |
| < 0.1 | < 0.1 | COc1cc(C(C)(C)c2cnc(SCc3c(F)cc(S(=O)(=O)N(CCC[N+](C)(C)C)[C@H](C)CC(=O)O)cc3Cl)n2-c2ccc(F)cc2)ccc1Cl [Compound 14aj, (R)-3-(N-(1-carboxypropan-2-yl)-3-chloro-4-((5-(2-(4-chloro-3-methoxyphenyl)-propan-2-yl)-1-(4-fluorophenyl)-1H-imidazol-2-ythio)methyl)-5-fluorophenyl-sulfonamido)-N,N,N-trimethylpropan-1-aminium 2,2,2-trifluoroacetate] |

Further lines, the compound ahead of its results:

| SMILES | EC50 (human TGR5 (h-TGR5)) [µM] | EC50 (h-TGR5) [µM] |
| --- | --- | --- |
| COc1cc(C(C)(C)c2cnc(SCc3c(F)cc(S(=O)(=O)N4CCC[C@@H](C[N+](C)(C)C)C4)cc3Cl)n2-c2ccc(F)cc2)ccc1F [Compound 11u, [(3S)-1-{[3-chloro-5-fluoro-4-({[5-{1-[4-fluoro-3-(methyloxy)phenyl]-1-methylethyl}-1-(4-fluorophenyl)-1H-imidazol-2-yl]thio}methyl)phenyl]sulfonyl}piperidin-3-yl]-N,N,N-trimethylmethanaminium] | < 0.1 | < 0.1 |
| CC[N+](CC)(CC)CCCNS(=O)(=O)c1cc(F)c(CSc2ncc(C(C)(C)c3ccc(Cl)c(OC)c3)n2-c2ccc(F)cc2)c(Cl)c1 [Example 6c, 3-({[3-chloro-4-({[5-{1-[4-chloro-3-(methyloxy)phenyl]-1-methylethyl}-1-(4-fluorophenyl)-1H-imidazol-2-yl]thio}methyl)-5-fluorophenyl]sulfonyl}amino)-N,N,N-triethylpropan-1-aminium] | < 0.1 | < 0.1 |
| COc1cc(C(C)(C)c2cnc(SCc3c(F)cc(C(=O)NC4CC[N+](C)(C)CC4)cc3Cl)n2-c2ccc(F)cc2)ccc1Cl [Example 2c, 4-({[3-chloro-4-({[5-{1-[4-chloro-3-(methyloxy)phenyl]-1-methylethyl}-1-(4-fluorophenyl)-1H-imidazol-2-yl]thio}methyl)-5-fluorophenyl]carbonyl}amino)-1,1-dimethylpiperidinium] | < 0.1 | < 0.1 |
| COc1cc(C(C)(C)c2cnc(SCc3c(F)cc(S(=O)(=O)N(CCC[N+](C)(C)C)CCC[N+](C)(C)C)cc3F)n2-c2ccc(F)cc2)ccc1Cl [Example 6i, 3,3′-({[4-({[5-{1-[4-chloro-3-(methyloxy)phenyl]-1-methylethyl}-1-(4-fluorophenyl)-1H-imidazol-2-yl]thio}methyl)-3,5-difluorophenyl]sulfonyl}imino)bis(N,N,N-trimethylpropan-1-aminium)] | 0.1 to 1 | < 0.1 |
| COc1cc(C(C)(C)c2cnc(SCc3c(F)cc(S(=O)(=O)N4CC(C[N+](C)(C)C)C4)cc3Cl)n2-c2ccc(F)cc2)ccc1Cl [Compound 11r, (1-{[3-chloro-4-({[5-{1-[4-chloro-3-(methyloxy)phenyl]-1-methylethyl}-1-(4-fluorophenyl)-1H-imidazol-2-yl]thio}methyl)-5-fluorophenyl]sulfonyl}azetidin-3-yl)-N,N,N-trimethylmethanaminium] | < 0.1 | < 0.1 |
| COc1cc(C(C)(C)c2cnc(SCc3cc(S(=O)(=O)NCCC[N+](C)(C)C)c(F)cc3Cl)n2-c2ccc(F)cc2)ccc1Cl [Example 7, 3-(4-Chloro-5-((5-(2-(4-chloro-3-methoxyphenyl)propan-2-yl)-1-(4-fluorophenyl)-1H-imidazol-2-ylthio)methyl)-2-fluorophenylsulfonamido)-N,N,N-trimethylpropan-1-aminium 2,2,2-trifluoroacetate] | < 0.1 | < 0.1 |
